This is an account of results in US10214531B2 (Institute for Drug Discovery, LLC, priority 2013, dated 2019).

Usually pIC50 stands for −log10 of the IC50, conventionally taken in molar units.

Molecules are shown by their SMILES. pIC50: −log10 of the molar value. Where a name gives a salt, the structure may show the parent alone.

The target of this assay is recombinant human AMCase (Homo sapiens, UniProt Q9BZP6). Nature of the assay: Human AMCase Activity Assay. In kind it is biochemical. As to conditions: recombinant hAMCase, 4-methylumbelliferyl chitobioside substrate, citrate buffer pH 5.2, 37° C., 60 minutes; read-out: Activity (IC50 value key). In a few lines: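 Recombinant human enzyme with fluorogenic 4-methylumbelliferyl β-D-N,N′-diacetylchitobioside substrate in citrate buffer, pH 5.2, 60 min at 37 °C in the dark with shaking. Read-out is 4MU fluorescence at 460 nm.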
recombinant human AMCase, sequence (Q9BZP6 22-476): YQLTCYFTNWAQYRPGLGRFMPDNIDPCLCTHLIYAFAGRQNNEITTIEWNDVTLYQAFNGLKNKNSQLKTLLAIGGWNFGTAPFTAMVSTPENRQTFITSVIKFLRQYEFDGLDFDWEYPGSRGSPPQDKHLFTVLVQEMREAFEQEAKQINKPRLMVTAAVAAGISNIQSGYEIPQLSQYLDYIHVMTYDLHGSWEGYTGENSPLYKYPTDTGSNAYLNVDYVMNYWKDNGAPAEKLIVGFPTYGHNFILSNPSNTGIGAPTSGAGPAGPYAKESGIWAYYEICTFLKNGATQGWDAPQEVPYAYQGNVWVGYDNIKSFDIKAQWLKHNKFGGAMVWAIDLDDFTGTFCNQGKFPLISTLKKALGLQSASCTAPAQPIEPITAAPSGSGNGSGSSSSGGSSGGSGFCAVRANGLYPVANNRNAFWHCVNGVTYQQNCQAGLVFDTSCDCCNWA
In the case of `Nc1n[nH]c(N2CCC(N(CCc3ccc(Cl)cc3)Cc3ccccc3CO)CC2)n1` [Example 164, (2-(((1-(3-amino-1H-1,2,4-triazol-5-yl)piperidin-4-yl)(4-chlorophenethyl)amino)methyl)phenyl)methanol dihydrochloride], the negative logarithm of the IC50 (pIC50) is more than 7.00. Consider `CN(CCc1ccc(Br)cc1)C1CCN(c2nc(N)n(C)n2)CC1` [Example 166, 1-(5-amino-1-methyl-1H-1,2,4-triazol-3-yl)-N-(4-bromophenethyl)-N-methylpiperidin-4-amine], for which the pIC50 is less than 4.00.

Take `Nc1n[nH]c(N2CCC(N(CCc3ccc(Br)cc3)Cc3ccc(F)c4ccccc34)CC2)n1` [Example 167, 1-(3-amino-1H-1,2,4-triazol-5-yl)-N-(4-bromophenethyl)-N-((4-fluoronaphthalen-1-yl)methyl)piperidin-4-amine]: the pIC50 is more than 7.00. As to `Nc1n[nH]c(N2CCC(N(CCc3ccc(Br)cc3)Cc3cccc4cnccc34)CC2)n1` [Example 168, 1-(3-amino-1H-1,2,4-triazol-5-yl)-N-(4-bromophenethyl)-N-(isoquinolin-5-ylmethyl)piperidin-4-amine], the pIC50 was more than 7.00. With `CN(CCc1ccccc1C(F)(F)F)C1CCN(c2nc(N)n[nH]2)CC1` [Example 169, 1-(3-amino-1H-1,2,4-triazol-5-yl)-N-methyl-N-(2-(trifluoromethyl)phenethyl)piperidin-4-amine], the pIC50 was 5.00 to 6.00.

`CN(CCc1ccc2c(c1)OCO2)C1CCN(c2nc(N)n[nH]2)CC1` [Example 170, 1-(3-amino-1H-1,2,4-triazol-5-yl)-N-(2-(benzo[d][1,3]dioxol-5-yl)ethyl)-N-methylpiperidin-4-amine]: the pIC50 was 5.00 to 6.00. As for `COc1ccccc1CCN(C)C1CCN(c2nc(N)n[nH]2)CC1` [Example 172, 1-(3-amino-1H-1,2,4-triazol-5-yl)-N-(2-methoxyphenethyl)-N-methylpiperidin-4-amine], the negative-log IC50 (pIC50) is 4.00 to 5.00. The figure for `COc1ccc(CCN(C)C2CCN(c3nc(N)n[nH]3)CC2)cc1OC` [Example 173, 1-(3-amino-1H-1,2,4-triazol-5-yl)-N-(3,4-dimethoxyphenethyl)-N-methylpiperidin-4-amine] is 4.00 to 5.00; for `CN(CCc1ccccc1OC(F)(F)F)C1CCN(c2nc(N)n[nH]2)CC1` [Example 174, 1-(3-amino-1H-1,2,4-triazol-5-yl)-N-methyl-N-(2-(trifluoromethoxy)phenethyl)piperidin-4-amine] it is 4.00 to 5.00.

Take `CN(CCc1ccc(Cl)c(Cl)c1)C1CCN(c2nc(N)n[nH]2)CC1` [Example 176, 1-(3-amino-1H-1,2,4-triazol-5-yl)-N-(3,4-dichlorophenethyl)-N-methylpiperidin-4-amine]: the negative-log IC50 (pIC50) was 5.00 to 6.00.

On to `COc1cccc(CCN(C)C2CCN(c3nc(N)n[nH]3)CC2)c1OC` [Example 177, 1-(3-amino-1H-1,2,4-triazol-5-yl)-N-(2,3-dimethoxyphenethyl)-N-methylpiperidin-4-amine], for which the pIC50 is 4.00 to 5.00.

On to `CN(C)c1ccc(CCN(C)C2CCN(c3nc(N)n[nH]3)CC2)cc1` [Example 178, 1-(3-amino-1H-1,2,4-triazol-5-yl)-N-(4-(dimethylamino)phenethyl)-N-methylpiperidin-4-amine], for which the pIC50 was 4.00 to 5.00. As for `Cc1ccccc1CCN(C)C1CCN(c2nc(N)n[nH]2)CC1` [Example 179, 1-(3-amino-1H-1,2,4-triazol-5-yl)-N-methyl-N-(2-methylphenethyl)piperidin-4-amine], the negative-log IC50 (pIC50) is 4.00 to 5.00.

On to `CN(CCc1cccc(C(F)(F)F)c1)C1CCN(c2nc(N)n[nH]2)CC1` [Example 180, 1-(3-amino-1H-1,2,4-triazol-5-yl)-N-methyl-N-(3-(trifluoromethyl)phenethyl)piperidin-4-amine], for which the pIC50 is 6.00 to 7.00.

As for `COc1ccc(OC)c(CCN(C)C2CCN(c3nc(N)n[nH]3)CC2)c1` [Example 182, 1-(3-amino-1H-1,2,4-triazol-5-yl)-N-(2,5-dimethoxyphenethyl)-N-methylpiperidin-4-amine], the pIC50 is 4.00 to 5.00. On to `CN(CCc1ccc(F)cc1)C1CCN(c2nc(N)n[nH]2)CC1` [Example 183, 1-(3-amino-1H-1,2,4-triazol-5-yl)-N-(4-fluorophenethyl)-N-methylpiperidin-4-amine], for which the negative-log IC50 (pIC50) is 5.00 to 6.00. Regarding `CN(CCc1c(Cl)cccc1Cl)C1CCN(c2nc(N)n[nH]2)CC1` [Example 184, 1-(3-amino-1H-1,2,4-triazol-5-yl)-N-(2,6-dichlorophenethyl)-N-methylpiperidin-4-amine], the negative logarithm of the IC50 (pIC50) is 5.00 to 6.00. The figure for `Nc1n[nH]c(N2CCC(N(CCc3ccc(Cl)cc3)CC(F)(F)F)CC2)n1` [Example 186, 1-(3-amino-1H-1,2,4-triazol-5-yl)-N-(4-chlorophenethyl)-N-(2,2,2-trifluoroethyl)piperidin-4-amine hydrochloride] is 4.00 to 5.00; for `Nc1n[nH]c(N2CCC(NS(=O)(=O)Cc3cccc(Br)c3)CC2)n1` [Example 191, N-(1-(3-amino-1H-1,2,4-triazol-5-yl)piperidin-4-yl)-1-(3-bromophenyl)methanesulfonamide] it is 5.00 to 6.00. The figure for `Nc1n[nH]c(N2CCC(NS(=O)(=O)Cc3cccc(C(F)(F)F)c3)CC2)n1` [Example 192, N-(1-(3-amino-1H-1,2,4-triazol-5-yl)piperidin-4-yl)-1-(3-(trifluoromethyl)phenyl)methanesulfonamide] is 5.00 to 6.00; for `Nc1n[nH]c(N2CCN(CCOc3ccccc3C(F)(F)F)CC2)n1` [Example 193, 5-(4-(2-(2-(trifluoromethyl)-phenoxy)ethyl)piperazin-1-yl)-1H-1,2,4-triazol-3-amine] it is less than 4.00; for `Nc1n[nH]c(N2CCN(CCOc3c(Cl)cccc3Cl)CC2)n1` [Example 194, 5-(4-(2-(2,6-dichlorophenoxy)ethyl)piperazin-1-yl)-1H-1,2,4-triazol-3-amine] it is 4.00 to 5.00. As for `Nc1n[nH]c(N2CCC(C(=O)NCc3cccc4ccccc34)CC2)n1` [Example 195, 1-(3-amino-1H-1,2,4-triazol-5-yl)-N-(naphthalen-1-ylmethyl)piperidine-4-carboxamide], the negative logarithm of the IC50 (pIC50) was less than 4.00. The figure for `Nc1n[nH]c(N2CCC(C(=O)NCc3cccc(F)c3)CC2)n1` [Example 196, 1-(3-amino-1H-1,2,4-triazol-5-yl)-N-(3-fluorobenzyl)piperidine-4-carboxamide] is less than 4.00; for `COc1ccccc1CNC(=O)C1CCN(c2nc(N)n[nH]2)CC1` [Example 197, 1-(3-amino-1H-1,2,4-triazol-5-yl)-N-(2-methoxybenzyl)piperidine-4-carboxamide] it is less than 4.00; for `Nc1n[nH]c(N2CCC(C(=O)NCc3ccccc3Cl)CC2)n1` [Example 198, 1-(3-amino-1H-1,2,4-triazol-5-yl)-N-(2-chlorobenzyl)piperidine-4-carboxamide] it is less than 4.00.

Turning to `Nc1n[nH]c(N2CCC(C(=O)NCc3ccc(F)c(F)c3)CC2)n1` [Example 199, 1-(3-amino-1H-1,2,4-triazol-5-yl)-N-(3,4-difluorobenzyl)piperidine-4-carboxamide], the negative-log IC50 (pIC50) was less than 4.00. With `CC(Cc1ccc(Cl)cc1)N(C)C1CCN(c2nc(N)n[nH]2)CC1` (centres unmarked) [Example 200, 1-(3-amino-1H-1,2,4-triazol-5-yl)-N-(1-(4-chlorophenyl)propan-2-yl)-N-methylpiperidin-4-amine], the pIC50 is more than 7.00. In the case of `COc1ccc(CNC(=O)C2CCN(c3nc(N)n[nH]3)CC2)c(OC)c1` [Example 201, 1-(3-amino-1H-1,2,4-triazol-5-yl)-N-(2,4-dimethoxybenzyl)piperidine-4-carboxamide], the negative-log IC50 (pIC50) was less than 4.00. The figure for `Cc1oc(C(F)(F)F)cc1CNC(=O)C1CCN(c2nc(N)n[nH]2)CC1` [Example 202, 1-(3-amino-1H-1,2,4-triazol-5-yl)-N-((2-methyl-5-(trifluoromethyl)furan-3-yl)methyl)piperidine-4-carboxamide] is less than 4.00; for `Cc1ccc(C)c(CNC(=O)C2CCN(c3nc(N)n[nH]3)CC2)c1` [Example 204, 1-(3-amino-1H-1,2,4-triazol-5-yl)-N-(2,5-dimethylbenzyl)piperidine-4-carboxamide] it is less than 4.00; for `Nc1n[nH]c(N2CCC(C(=O)NCc3ccc(OC(F)(F)F)cc3)CC2)n1` [Example 205, 1-(3-amino-1H-1,2,4-triazol-5-yl)-N-(4-(trifluoromethoxy)benzyl)piperidine-4-carboxamide] it is less than 4.00. Take `COc1ccc(CNC(=O)C2CCN(c3nc(N)n[nH]3)CC2)cc1` [Example 206, 1-(3-amino-1H-1,2,4-triazol-5-yl)-N-(4-methoxybenzyl)piperidine-4-carboxamide]: the pIC50 is less than 4.00. The figure for `Nc1n[nH]c(N2CCC(C(=O)NCC3CCC(F)(F)CC3)CC2)n1` [Example 207, 1-(3-amino-1H-1,2,4-triazol-5-yl)-N-((4,4-difluorocyclohexyl)methyl)piperidine-4-carboxamide] is less than 4.00; for `Nc1n[nH]c(N2CCC(CNC(=O)c3cccc(F)c3)CC2)n1` [Example 208, N-((1-(3-amino-1H-1,2,4-triazol-5-yl)piperidin-4-yl)methyl)-3-fluorobenzamide] it is less than 4.00. The figure for `Nc1n[nH]c(N2CCC(CNC(=O)c3cc(Br)cc(Br)c3)CC2)n1` [Example 209, N-((1-(3-amino-1H-1,2,4-triazol-5-yl)piperidin-4-yl)methyl)-3,5-dibromobenzamide] is less than 4.00; for `Cc1cccc(C(=O)NCC2CCN(c3nc(N)n[nH]3)CC2)c1C` [Example 210, N-((1-(3-amino-1H-1,2,4-triazol-5-yl)piperidin-4-yl)methyl)-2,3-dimethylbenzamide] it is less than 4.00; for `COc1ccc(C(=O)NCC2CCN(c3nc(N)n[nH]3)CC2)cc1OC` [Example 211, N-((1-(3-amino-1H-1,2,4-triazol-5-yl)piperidin-4-yl)methyl)-3,4-dimethoxybenzamide] it is less than 4.00.
